Experimental data from patent US20260062412A1, “NITROGEN-CONTAINING HETEROCYCLIC COMPOUND HAVING MYT1 INHIBITORY ACTIVITY” (CHUGAI SEIYAKU KABUSHIKI KAISHA, priority 2023, published 2026).

Biological target: MYT1 protein (Homo sapiens (Human), UniProt Q99640)
Assay: Test for binding to ATP binding site of MYT1 (Kinase Tracer 178 / Eu-Anti-GST antibody TR-FRET)
Conditions: ATP binding site of MYT1, 30 minutes at room temperature

MYT1 protein, sequence (Q99640 whole entry): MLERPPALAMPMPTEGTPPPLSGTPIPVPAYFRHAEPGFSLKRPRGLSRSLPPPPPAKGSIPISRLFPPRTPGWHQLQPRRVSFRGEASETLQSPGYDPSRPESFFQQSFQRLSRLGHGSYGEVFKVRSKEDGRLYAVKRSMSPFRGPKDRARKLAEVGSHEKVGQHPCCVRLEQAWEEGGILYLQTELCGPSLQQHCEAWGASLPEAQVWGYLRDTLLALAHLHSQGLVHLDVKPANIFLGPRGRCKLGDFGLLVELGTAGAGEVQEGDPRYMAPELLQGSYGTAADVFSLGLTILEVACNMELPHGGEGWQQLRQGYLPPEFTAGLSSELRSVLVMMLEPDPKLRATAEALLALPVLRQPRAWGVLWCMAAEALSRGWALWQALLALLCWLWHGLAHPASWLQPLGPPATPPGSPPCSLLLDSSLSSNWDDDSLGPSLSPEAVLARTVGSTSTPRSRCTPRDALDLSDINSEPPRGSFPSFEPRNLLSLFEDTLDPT

Row | SMILES | IC50 [nM]
1 | Nc1c(-c2ccc(F)c3[nH]ncc23)c2cc(CCC(F)F)c3ncccc3c2[nH]c1=O [Compound C171, 3-Amino-6-(3,3-difluoropropyl)-4-(7-fluoro-1H-indazol-4-yl)-1H-1,7-phenanthrolin-2-one] | 2.2
2 | CC(C)(C)C1CC(c2cc3c(-c4ccc(F)c5[nH]ncc45)c(N)c(=O)[nH]c3c3cccnc23)C1 (stereo not shown) [Compound C173, 3-Amino-6-(3-tert-butylcyclobutyl)-4-(7-fluoro-1H-indazol-4-yl)-1H-1,7-phenanthrolin-2-one] | 95
3 | CC1(C)CC2(CC(c3cc4c(-c5ccc(F)c6[nH]ncc56)c(N)c(=O)[nH]c4c4cccnc34)C2)C1 [Compound C174, 3-Amino-6-(2,2-dimethylspiro[3,3]heptan-6-yl)-4-(7-fluoro-1H-indazol-4-yl)-1H-1,7-one] | 140
4 | Nc1c(-c2ccc(F)c3[nH]ncc23)c2cc(C3CC4(CC4)C3)c3ncccc3c2[nH]c1=O [Compound C175, 3-Amino-4-(7-fluoro-1H-indazol-4-yl)-6-spiro[2.3]hexan-5-yl-1H-1,7-phenanthrolin-2-one] | 16
5 | N#CC1CC(c2cc3c(-c4ccc(F)c5[nH]ncc45)c(N)c(=O)[nH]c3c3cccnc23)C1 (stereo not shown) [Compound C176, 3-[3-Amino-4-(7-fluoro-1H-indazol-4-yl)-2-oxo-1H-1,7-phenanthrolin-6-yl]cyclobutane-1-carbonitrile] | 2.1
6 | N#CC1(Cc2cc3c(-c4ccc(F)c5[nH]ncc45)c(N)c(=O)[nH]c3c3cccnc23)CC1 [Compound C177, 1-[[3-Amino-4-(7-fluoro-1H-indazol-4-yl)-2-oxo-1H-1,7-phenanthrolin-6-yl]methyl]cyclopropane-1-carbonitrile] | 2.1
7 | N#C[C@H]1C[C@@H](c2cc3c(-c4ccc(F)c5[nH]ncc45)c(N)c(=O)[nH]c3c3cccnc32)C1 [Compound C178, (1s,3s)-3-[3-Amino-4-(7-fluoro-1H-indazol-4-yl)-2-oxo-1H-1,7-phenanthrolin-6-yl]cyclobutane-1-carbonitrile] | 2.3
8 | N#C[C@H]1C[C@H](c2cc3c(-c4ccc(F)c5[nH]ncc45)c(N)c(=O)[nH]c3c3cccnc32)C1 [Compound C179, (1r,3r)-3-[3-Amino-4-(7-fluoro-1H-indazol-4-yl)-2-oxo-1H-1,7-phenanthrolin-6-yl]cyclobutane-1-carbonitrile] | 0.84
9 | CC(C)(C)c1ccc2c(ccc3c(-c4ccc(F)c5[nH]ncc45)c(N)c(=O)[nH]c32)n1 [Compound C180, 3-Amino-8-tert-butyl-4-(7-fluoro-1H-indazol-4-yl)-1H-1,7-phenanthrolin-2-one] | 41
10 | Cc1ccc2c(n1)c(I)cc1c(-c3ccc(F)c4[nH]ncc34)c(N)c(=O)[nH]c12 [Compound C181, 3-Amino-4-(7-fluoro-1H-indazol-4-yl)-6-iodo-8-methyl-1H-1,7-phenanthrolin-2-one] | 23
11 | Cc1ccc2c(n1)c(C1CC1)cc1c(-c3ccc(F)c4[nH]ncc34)c(N)c(=O)[nH]c12 [Compound C182, 3-Amino-6-cyclopropyl-4-(7-fluoro-1H-indazol-4-yl)-8-methyl-1H-1,7-phenanthrolin-2-one] | 5.5
12 | Cc1ccc2c(ccc3c(-c4ccc(F)c5[nH]ncc45)c(N)c(=O)[nH]c32)n1 [Compound C183, 3-Amino-4-(7-fluoro-1H-indazol-4-yl)-8-methyl-1H-1,7-phenanthrolin-2-one] | 110
13 | Nc1c(-c2ccc(F)c3[nH]ncc23)c2cc(C(F)(F)F)c3ncccc3c2[nH]c1=O [Compound C187, 3-Amino-4-(7-fluoro-1H-indazol-4-yl)-6-(trifluoromethyl)-1H-1,7-phenanthrolin-2-one] | 20
14 | Nc1c(-c2ccc(F)c3[nH]ncc23)c2cc(OC(F)(F)F)c3ncccc3c2[nH]c1=O [Compound C188, 3-Amino-4-(7-fluoro-1H-indazol-4-yl)-6-(trifluoromethoxy)-1H-1,7-phenanthrolin-2-one] | 4.1
15 | Cc1cc2c(-c3ccc(F)c4[nH]ncc34)c(N)c(=O)[nH]c2c2cc(B(O)O)cnc12 [Compound C189, [3-Amino-4-(7-fluoro-1H-indazol-4-yl)-6-methyl-2-oxo-1H-1,7-phenanthrolin-9-yl]boronic acid] | 18
16 | Nc1c(-c2cc(F)c(F)c3[nH]ncc23)c2cc(C3CC3)c3ncccc3c2[nH]c1=O [Compound C191, 3-Amino-6-cyclopropyl-4-(6,7-difluoro-1H-indazol-4-yl)-1H-1,7-phenanthrolin-2-one] | 6
17 | CCc1cc2c(-c3cc(F)c(F)c4[nH]ncc34)c(N)c(=O)[nH]c2c2cccnc12 [Compound C192, 3-Amino-4-(6,7-difluoro-1H-indazol-4-yl)-6-ethyl-1H-1,7-phenanthrolin-2-one] | 3.7
18 | CCOc1cc2c(-c3cc(F)c(Cl)c4[nH]ncc34)c(N)c(=O)[nH]c2c2cccnc12 [Compound C193, 3-Amino-4-(7-chloro-6-fluoro-1H-indazol-4-yl)-6-ethoxy-1H-1,7-phenanthrolin-2-one] | 1.7
19 | CC(C)Oc1cc2c(-c3cc(F)c(Cl)c4[nH]ncc34)c(N)c(=O)[nH]c2c2cccnc12 [Compound C194, 3-Amino-4-(7-chloro-6-fluoro-1H-indazol-4-yl)-6-propan-2-yloxy-1H-1,7-phenanthrolin-2-one] | 1.6

Row | SMILES | IC50 [nM]
20 | Cc1cc2c(-c3cc(F)c(Cl)c4[nH]ncc34)c(N)c(=O)[nH]c2c2cccnc12 [Compound C196, 3-Amino-4-(7-chloro-6-fluoro-1H-indazol-4-yl)-6-methyl-1H-1,7-phenanthrolin-2-one] | 3.6
21 | Nc1c(-c2cc(F)c(F)c3[nH]ncc23)c2ccc3ncccc3c2[nH]c1=O [Compound C197, 3-Amino-4-(6,7-difluoro-1H-indazol-4-yl)-1H-1,7-phenanthrolin-2-one] | 20
22 | Nc1c(-c2cc(F)c(F)c3[nH]ncc23)c2cc(Cl)c3ncccc3c2[nH]c1=O [Compound C198, 3-Amino-6-chloro-4-(6,7-difluoro-1H-indazol-4-yl)-1H-1,7-phenanthrolin-2-one] | 3.1
23 | Nc1c(-c2cc(F)c(F)c3[nH]ncc23)c2cc(O)c3ncccc3c2[nH]c1=O [Compound C199, 3-Amino-4-(6,7-difluoro-1H-indazol-4-yl)-6-hydroxy-1H-1,7-phenanthrolin-2-one] | 3.8
24 | Nc1c(-c2cc(F)c(F)c3[nH]ncc23)c2cc(C3CCC3)c3ncccc3c2[nH]c1=O [Compound C201, 3-Amino-6-cyclobutyl-4-(6,7-difluoro-1H-indazol-4-yl)-1H-1,7-phenanthrolin-2-one] | 5.7
25 | Nc1c(-c2cc(F)c(F)c3[nH]ncc23)c2cc(C3CCCC3)c3ncccc3c2[nH]c1=O [Compound C202, 3-Amino-6-cyclopentyl-4-(6,7-difluoro-1H-indazol-4-yl)-1H-1,7-phenanthrolin-2-one] | 7.7
26 | CC(C)Cc1cc2c(-c3cc(F)c(F)c4[nH]ncc34)c(N)c(=O)[nH]c2c2cccnc12 [Compound C203, 3-Amino-4-(6,7-difluoro-1H-indazol-4-yl)-6-(2-methylpropyl)-1H-1,7-phenanthrolin-2-one] | 17
27 | C=Cc1cc2c(-c3cc(F)c(F)c4[nH]ncc34)c(N)c(=O)[nH]c2c2cccnc12 [Compound C204, 3-Amino-4-(6,7-difluoro-1H-indazol-4-yl)-6-ethenyl-1H-1,7-phenanthrolin-2-one] | 10
28 | Nc1c(-c2cc(F)c(F)c3[nH]ncc23)c2cc(OC(F)F)c3ncccc3c2[nH]c1=O [Compound C205, 3-Amino-4-(6,7-difluoro-1H-indazol-4-yl)-6-(difluoromethoxy)-1H-1,7-phenanthrolin-2-one] | 3.4
29 | Nc1c(-c2cc(F)c(F)c3[nH]ncc23)c2cc(OC3CCC3)c3ncccc3c2[nH]c1=O [Compound C206, 3-Amino-6-cyclobutyloxy-4-(6,7-difluoro-1H-indazol-4-yl)-1H-1,7-phenanthrolin-2-one] | 4.1
30 | Cn1cc(-c2cc3c(-c4cc(F)c(F)c5[nH]ncc45)c(N)c(=O)[nH]c3c3cccnc23)cn1 [Compound C207, 3-Amino-4-(6,7-difluoro-1H-indazol-4-yl)-6-(1-methylpyrazol-4-yl)-1H-1,7-phenanthrolin-2-one] | 1
31 | Nc1c(-c2cc(F)c(F)c3[nH]ncc23)c2cc(N3CCOCC3)c3ncccc3c2[nH]c1=O [Compound C208, 3-Amino-4-(6,7-difluoro-1H-indazol-4-yl)-6-morpholin-4-yl-1H-1,7-phenanthrolin-2-one] | 2.1
32 | CN1CCN(c2cc3c(-c4cc(F)c(F)c5[nH]ncc45)c(N)c(=O)[nH]c3c3cccnc23)CC1 [Compound C209, 3-Amino-4-(6,7-difluoro-1H-indazol-4-yl)-6-(4-methylpiperazin-1-yl)-1H-1,7-phenanthrolin-2-one] | 1.5
33 | Nc1c(-c2cc(F)c(F)c3[nH]ncc23)c2cc(O[C@H]3C[C@H](F)C3)c3ncccc3c2[nH]c1=O [Compound C210, 3-Amino-4-(6,7-difluoro-1H-indazol-4-yl)-6-((1r,3r)-3-fluorocyclobutyl)oxy-1H-1,7-phenanthrolin-2-one] | 1.3
34 | N#C[C@H]1C[C@H](Oc2cc3c(-c4cc(F)c(F)c5[nH]ncc45)c(N)c(=O)[nH]c3c3cccnc23)C1 [Compound C211, (1r,3r)-3-[[3-Amino-4-(6,7-difluoro-1H-indazol-4-yl)-2-oxo-1H-1,7-phenanthrolin-6-yl]oxy]cyclobutane-1-carbonitrile] | 0.87
35 | Nc1c(-c2cc(F)c(F)c3[nH]ncc23)c2cc(OCCC(F)F)c3ncccc3c2[nH]c1=O [Compound C214, 3-Amino-4-(6,7-difluoro-1H-indazol-4-yl)-6-(3,3-difluoropropoxy)-1H-1,7-phenanthrolin-2-one] | 1.7
36 | Nc1c(-c2cc(F)c(F)c3[nH]ncc23)c2cc(-c3cccnc3)c3ncccc3c2[nH]c1=O [Compound C215, 3-Amino-4-(6,7-difluoro-1H-indazol-4-yl)-6-pyridin-3-yl-1H-1,7-phenanthrolin-2-one] | 2.4
37 | Cc1c(C)c2c(-c3cc(F)c(F)c4[nH]ncc34)c(N)c(=O)[nH]c2c2cccnc12 [Compound C216, 3-Amino-4-(6,7-difluoro-1H-indazol-4-yl)-5,6-dimethyl-1H-1,7-phenanthrolin-2-one] | 3.4
